{"source": "patent US8536332B2", "about": "“Modulating signal transduction pathways with substituted pyridol [2,3-b] pyrazines” (Aeterna Zentaris GmbH, priority 2007, dated 2013)", "data": [{"units": {"melting point": "°C"}, "values": [{"smiles": "COc1cc(-c2ccc3ncc(NC(=O)NC4CCCCC4)nc3n2)ccc1O", "note": "[Compound 17, 1-Cyclohexyl-3-[6-(4-hydroxy-3-methoxy-phenyl)-pyrido[2,3-b]pyrazin-3-yl]-urea]", "melting point": "232 to 235"}, {"smiles": "CCNC(=O)Nc1cnc2ccc(Nc3ccc(C)c(OC)c3)nc2n1", "note": "[Compound 209, 1-Ethyl-3-[6-(3-methoxy-4-methyl-phenylamino)-pyrido[2,3-b]pyrazin-3-yl]-urea]", "melting point": 255}, {"smiles": "CCNC(=O)Nc1ccc2ncc(-c3cc(F)c(F)c(F)c3)nc2n1", "note": "[Compound 81, 1-Ethyl-3-[3-(3,4,5-trifluoro-phenyl)-pyrido[2,3-b]pyrazin-6-yl]-urea]", "melting point": "305.4 to 307.2"}, {"smiles": "CCNC(=O)Nc1cnc2ccc(N3CCCN(C)CC3)nc2n1", "note": "[Compound 233, 1-Ethyl-3-[6-(4-methyl-[1,4]diazepan-1-yl)-pyrido[2,3-b]pyrazin-3-yl]-urea]", "melting point": "199 to 201"}, {"smiles": "CCNC(=O)Nc1cnc2ccc(Nc3ccccc3)nc2n1", "note": "[Compound 13, 1-Ethyl-3-(6-phenylamino-pyrido[2,3-b]pyrazin-3-yl)-urea]", "melting point": 202}, {"smiles": "CCNC(=S)Nc1ccc2ncc(Nc3ccc(O)cc3)nc2n1", "note": "[Compound 161, 1-Ethyl-3-[3-(4-hydroxy-phenylamino)-pyrido[2,3-b]pyrazin-6-yl]-thiourea]", "melting point": 262}, {"smiles": "CCNC(=O)Nc1cnc2ccc(-c3ccc(OC)cc3)nc2n1", "note": "[Compound 11, 1-Ethyl-3-[6-(4-methoxy-phenyl)-pyrido[2,3-b]pyrazin-3-yl]-urea]", "melting point": 244}, {"smiles": "CCNC(=O)Nc1ccc2ncc(-c3cc(Cl)cc(C)c3F)nc2n1", "note": "[Compound 96, 1-[3-(5-Chloro-2-fluoro-3-methyl-phenyl)-pyrido[2,3-b]pyrazin-6-yl]-3-ethyl-urea]", "melting point": "258 to 259"}, {"smiles": "CCNC(=O)Nc1ccc2ncc(-c3cc(F)ccc3OC)nc2n1", "note": "[Compound 93, 1-Ethyl-3-[3-(5-fluoro-2-methoxy-phenyl)-pyrido[2,3-b]pyrazin-6-yl]-urea]", "melting point": "253 to 258"}, {"smiles": "CCNC(=S)Nc1ccc2ncc(Nc3cccc(Cl)c3)nc2n1", "note": "[Compound 329, 1-[3-(3-Chloro-phenylamino)-pyrido[2,3-b]pyrazin-6-yl]-3-ethyl-thiourea]", "melting point": "> 220"}, {"smiles": "COc1ccc(-c2ccc3ncc(NC(=O)NC4CCCC4)nc3n2)cc1OC", "note": "[Compound 576, 1-Cyclopentyl-3-[6-(3,4-dimethoxy-phenyl)-pyrido[2,3-b]pyrazin-3-yl]-urea]", "melting point": "261 to 264"}, {"smiles": "CCNC(=O)Nc1ccc2ncc(-c3ccc(C)c(C)c3)nc2n1", "note": "[Compound 142, 1-[3-(3,4-Dimethyl-phenyl)-pyrido[2,3-b]pyrazin-6-yl]-3-ethyl-urea]", "melting point": "247 to 249"}, {"smiles": "CCNC(=O)Nc1ccc2ncc(-c3ccccc3OCc3ccccc3)nc2n1", "note": "[Compound 57, 1-[3-(2-Benzyloxy-phenyl)-pyrido[2,3-b]pyrazin-6-yl]-3-ethyl-urea]", "melting point": "181 to 183"}, {"smiles": "CCNC(=S)Nc1cnc2ccc(Nc3cccc(CC(=O)O)c3)nc2n1", "note": "[Compound 195, {3-[3-(3-Ethyl-thioureido)-pyrido[2,3-b]pyrazin-6-ylamino]-phenyl}-acetic acid]", "melting point": 248}, {"smiles": "COc1cc(Nc2cnc3ccc(NC(=S)NCCc4ccccc4)nc3n2)cc(OC)c1OC", "note": "[Compound 699, 1-Phenethyl-3-[3-(3,4,5-trimethoxy-phenylamino)-pyrido[2,3-b]pyrazin-6-yl]-thiourea]", "melting point": "197 to 200"}, {"smiles": "COc1cc(-c2ccc3ncc(NC(=O)Nc4ccc(C#N)cc4)nc3n2)ccc1O", "note": "[Compound 626, 1-(4-Cyano-phenyl)-3-[6-(4-hydroxy-3-methoxy-phenyl)-pyrido[2,3-b]pyrazin-3-yl]-urea]", "melting point": "259 to 261"}, {"smiles": "CCNC(=O)Nc1cnc2ccc(-c3ccc(C(C)=O)s3)nc2n1", "note": "[Compound 183, 1-[6-(5-Acetyl-thiophen-2-yl)-pyrido[2,3-b]pyrazin-3-yl]-3-ethyl-urea]", "melting point": "> 250"}, {"smiles": "COc1cc(-c2ccc3ncc(NC(=O)NCc4ccccc4)nc3n2)ccc1O", "note": "[Compound 29, 1-Benzyl-3-[6-(4-hydroxy-3-methoxy-phenyl)-pyrido[2,3-b]pyrazin-3-yl]-urea]", "melting point": "229 to 231"}, {"smiles": "CCNC(=S)Nc1ccc2ncc(Nc3ccccc3O)nc2n1", "note": "[Compound 149, 1-Ethyl-3-[3-(2-hydroxy-phenylamino)-pyrido[2,3-b]pyrazin-6-yl]-thiourea]", "melting point": 280}, {"smiles": "CCNC(=O)Nc1cnc2ccc(-c3ccncc3)nc2n1", "note": "[Compound 7, 1-Ethyl-3-(6-pyridin-4-yl-pyrido[2,3-b]pyrazin-3-yl)-urea]", "melting point": 211}, {"smiles": "CCNC(=O)Nc1ccc2ncc(-c3cc(Cl)cc(Cl)c3)nc2n1", "note": "[Compound 90, 1-[3-(3,5-Dichloro-phenyl)-pyrido[2,3-b]pyrazin-6-yl]-3-ethyl-urea]", "melting point": "298 to 305"}, {"smiles": "CCNC(=O)Nc1ccc2ncc(Nc3ccccc3OC)nc2n1", "note": "[Compound 153, 1-Ethyl-3-[3-(2-methoxy-phenylamino)-pyrido[2,3-b]pyrazin-6-yl]-urea]", "melting point": 225}, {"smiles": "CN(C)c1ccc(NC(=O)Nc2cnc3ccc(-c4cc(Cl)c(O)c(Cl)c4)nc3n2)cc1", "note": "[Compound 555, 1-[6-(3,5-Dichloro-4-hydroxy-phenyl)-pyrido[2,3-b]pyrazin-3-yl]-3-(4-dimethylamino-phenyl)-urea]", "melting point": "259 to 262"}, {"smiles": "COc1ccc(-c2ccc3ncc(NC(=O)Nc4ccc(C)cc4)nc3n2)cc1OC", "note": "[Compound 578, 1-[6-(3,4-Dimethoxy-phenyl)-pyrido[2,3-b]pyrazin-3-yl]-3-p-tolyl-urea]", "melting point": "263 to 266"}, {"smiles": "CCNC(=O)Nc1ccc2ncc(-c3cccc(F)c3)nc2n1", "note": "[Compound 129, 1-Ethyl-3-[3-(3-fluoro-phenyl)-pyrido[2,3-b]pyrazin-6-yl]-urea]", "melting point": "283 to 286"}, {"smiles": "CCNC(=O)Nc1cnc2ccc(-c3cc(C)c(OC(C)C)c(C)c3)nc2n1", "note": "[Compound 597, 1-Ethyl-3-[6-(4-isopropoxy-3,5-dimethyl-phenyl)-pyrido[2,3-b]pyrazin-3-yl]-urea]", "melting point": 221}, {"smiles": "CCNC(=S)Nc1cnc2ccc(-c3ccc(C)cc3)nc2n1", "note": "[Compound 651, 1-Ethyl-3-(6-p-tolyl-pyrido[2,3-b]pyrazin-3-yl)-thiourea]", "melting point": "230 to 231"}, {"smiles": "CCNC(=O)Nc1ccc2ncc(Nc3ccc(Cl)c(C(=O)O)c3)nc2n1", "note": "[Compound 434, 2-Chloro-5-[6-(3-ethyl-ureido)-pyrido[2,3-b]pyrazin-3-ylamino]-benzoic acid]", "melting point": "324 to 329"}, {"smiles": "CCNC(=S)Nc1cnc2ccc(Nc3cccc(OC)c3)nc2n1", "note": "[Compound 221, 1-Ethyl-3-[6-(3-methoxy-phenylamino)-pyrido[2,3-b]pyrazin-3-yl]-thiourea]", "melting point": 189}, {"smiles": "CCNC(=S)Nc1ccc2ncc(-c3cc(C)c(O)c(C)c3)nc2n1", "note": "[Compound 125, 1-Ethyl-3-[3-(4-hydroxy-3,5-dimethyl-phenyl)-pyrido[2,3-b]pyrazin-6-yl]-thiourea]", "melting point": 244}, {"smiles": "CCCCOc1c(C)cc(-c2ccc3ncc(NC(=O)NCC)nc3n2)cc1C", "note": "[Compound 599, 1-[6-(4-Butoxy-3,5-dimethyl-phenyl)-pyrido[2,3-b]pyrazin-3-yl]-3-ethyl-urea]", "melting point": 233}]}]}
